How the values were obtained:
[1] = system: ROS17/2.8 cells; test: Cell growth of ROS17/2.8 cells by BrdU uptake (Cell Proliferation Biotrak ELISA); format: cell-based, rat; conditions: for Cell growth of ROS17/2.8 cells compared with Solution 1 (FIG. 1) / Cell growth of ROS17/2.8 cells compared with Solution 1 (FIG. 2): BrdU uptake, Dunnett multiple comparison test; for Product of relative indices of single agent addition group: Bürgi's method; for Relative index of BrdU uptake amount, Solution 3 (1α,25-dihydroxyvitamin D3 alone): 10^−4M 1α,25-dihydroxyvitamin D3 solution diluted 1000 fold
Method: ROS17/2.8 cells were inoculated to a 96-well plate at a density of 2×10^4 cells/well. An αMEM medium to which 10% fetal calf serum had been added (referred to as the 10% FCS-αMEM, hereinafter) was used as a medium. After culture of the cells overnight, the medium was removed from each well, and an αMEM medium to which 0.5% fetal calf serum had been added (referred to as the 0.5% FCS-αMEM, hereinafter) was added. After culture of the cells for about six hours, the medium was removed from each well, and a 10% FCS-αMEM comprising DMSO and ethanol (referred to as Solution 1, hereinafter), a Compound 1 solution and ethanol (referred to as Solution 2, hereinafter), a 1α,25-dihydroxyvitamin D3 solution and DMSO (referred to as Solution 3, hereinafter) or the Compound 1 solution and the 1α,25-dihydroxyvitamin D3 solution (referred to as Solution 4, hereinafter) was added. The 10% FCS-αMEM comprising Solution 1 was prepared by diluting DMSO and ethanol by 1000 fold with the 10% FCS-αMEM. The 10% FCS-αMEM comprising Solution 2 was prepared by diluting a 10^−5M Compound 1 solution and ethanol by 1000 fold with the 10% FCS-αMEM. The 10% FCS-αMEM comprising Solution 3 was prepared by diluting a 10^−4M 1α,25-dihydroxyvitamin D3 solution and DMSO by 1000 fold with the 10% FCS-αMEM. The 10% FCS-αMEM comprising Solution 4 was prepared by diluting the 10^−5M Compound 1 solution and the 10^−4M 1α,25-dihydroxyvitamin D3 solution by 1000 fold with the 10% FCS-αMEM. After culture of the cells for about 24 hours, the effect of Compound 1 and 1α,25-dihydroxyvitamin D3 on the cell growth of the ROS17/2.8 cells was evaluated using Amersham Cell Proliferation Biotrak ELISA system, version 2 (manufactured by GE healthcare bioscience K.K., Code No. RPN250). Namely, growing cells were made take 5-bromo-2′-deoxyuridine (BrdU) into the cells, and the cells were detected by ELISA using peroxidase-labeled anti-BrdU antibodies. The amount of BrdU taken into the cells was determined by measuring absorbance (450 nm) of the solution by a microplate reader.
The BrdU uptake amount in each solution addition group was obtained in terms of a percentage to the average value of the BrdU uptake amount in four wells in a Solution 1 addition group. The graph was made using the average value±standard error of the four wells of each solution addition group.
In the Bürgi's method, the value of a standard group is […] the values of each treated group to obtain a relative index. […] If they are the same, it is determined that there is an added action. In contrast, if the value of the combination treatment group is poor, it is determined that there is an antagonistic action.
ROS17/2.8 cells were inoculated to a 96-well plate at a density of 5×10^3 cells/well. The 10% FCS-αMEM was used as a medium. After culture of the cells overnight, the medium was removed from each well, and the 0.5% FCS-αMEM was added. After culture of the cells for about six hours, the medium was removed from each well, and the 10% FCS-αMEM comprising DMSO and ethanol (referred to as Solution 1, hereinafter), a Compound 11 solution and ethanol (referred to as Solution 5, hereinafter), the 1α,25-dihydroxyvitamin D3 solution and DMSO (referred to as Solution 3, hereinafter) or the Compound 11 solution and the 1α,25-dihydroxyvitamin D3 solution (referred to as Solution 6, hereinafter) was added. The 10% FCS-αMEM comprising Solution 1 was prepared by diluting DMSO and ethanol by 1000 fold with the 10% FCS-αMEM. The 10% FCS-αMEM comprising Solution 5 was prepared by diluting a 10^−5M Compound 11 solution and ethanol by 1000 fold with the 10% FCS-αMEM. The 10% FCS-αMEM comprising Solution 3 was prepared by diluting a 10^−4M 1α,25-dihydroxyvitamin D3 solution and DMSO by 1000 fold with the 10% FCS-αMEM.

[2] = system: ROS17/2.8 cells; test: Cell growth of ROS17/2.8 cells by the MTT method (formed formazan); format: cell-based, rat
Method: 100 μL of a 10% FCS-αMEM comprising either DMSO and ethanol (referred to as Solution 7, hereinafter), a Test Compound solution and ethanol (referred to as Solution 8, hereinafter), a 1α,25-dihydroxyvitamin D3 solution and DMSO (referred to as Solution 9, hereinafter) or a Test Compound solution and the 1α,25-dihydroxyvitamin D3 solution (referred to as Solution 10, hereinafter) was dispensed. The ROS17/2.8 cells were inoculated to a medium at a density of 5×10^3 cells/100 μL/well. After culture of the cells for about 48 hours, the effect of Test Compound and 1α,25-dihydroxyvitamin D3 on the cell growth of the ROS17/2.8 cells was evaluated using the MTT method. Namely, after culture of the cells for about 44 hours, an MTT solution (3-[4,5-dimethylthiazol-2-yl]-2,5-diphenyltetrazolium bromide 2 mg/mL) was added in an amount of 25 μL/well, and the cells were further cultured for four hours. After the medium was removed, DMSO was added in an amount of 100 μL/well so as to dissolve the formed formazan. The amount of the formed formazan was determined by measuring the absorbance (at 560 nm) of the solution by a microplate reader.
The 10% FCS-αMEM comprising Solution 7 was prepared by diluting DMSO by 1000 fold with the 10% FCS-αMEM, and diluting ethanol by 10000 fold with the 10% FCS-αMEM. The 10% FCS-αMEM comprising Solution 8 was prepared by diluting a 2×10^−5M Test Compound solution by 1000 fold with the 10% FCS-αMEM, and diluting ethanol by 10000 fold with the 10% FCS-αMEM. The 10% FCS-αMEM comprising Solution 9 was prepared by diluting 2×10^−3M 1α,25-dihydroxyvitamin D3 solution by 10000 fold with the 10% FCS-αMEM, and diluting DMSO by 1000 fold with the 10% FCS-αMEM. The 10% FCS-αMEM comprising Solution 10 was prepared by diluting a 2×10^−5M Test Compound solution by 1000 fold with the 10% FCS-αMEM, and diluting 2×10^−3M 1α,25-dihydroxyvitamin D3 solution by 10000 fold with the 10% FCS-αMEM.
The amount of the formed formazan in each solution addition group was obtained in terms of a percentage to the average value of the amounts of formed formazan in four wells in a Solution 7 addition group. All the determined values were shown in terms of the average value±standard deviation of the four wells of each solution addition group.

[3] = amount of formed formazan, Solution 7 = 1.00

Structure (SMILES)	Relative index of BrdU uptake amount, Solution 2 (Compound 1 alone) ([1]; Example 1, 2×10^4 cells/well, 10^−5M Compound 1 solution diluted 1000 fold, about 24 hours, Solution 1 = 1.000)	Cell growth of ROS17/2.8 cells compared with Solution 1 (FIG. 1) ([1]; Example 1)	Product of relative indices of single agent addition group ([1]; Example 1, Compound 1 alone × 1α,25-dihydroxyvitamin D3 alone)	Relative index of BrdU uptake amount, Solution 3 (1α,25-dihydroxyvitamin D3 alone) ([1]; Example 1, 2×10^4 cells/well, about 24 hours, Solution 1 = 1.000)	Relative index of BrdU uptake amount, Solution 3 (1α,25-dihydroxyvitamin D3 alone) ([1]; Example 2, 5×10^3 cells/well, about 24 hours, Solution 1 = 1.000)	Cell growth of ROS17/2.8 cells compared with Solution 1 (FIG. 2) ([1]; Example 2)	Relative index of Solution 9 (1α,25-dihydroxyvitamin D3 alone) [2, 3]	Amount of formed formazan, Solution 9 (1α,25-dihydroxyvitamin D3 alone) ([2]; percentage to Solution 7 addition group, 2×10^−3M 1α,25-dihydroxyvitamin D3 solution diluted 10000 fold, about 48 hours, average ± standard deviation of four wells) [%]	Relative index of BrdU uptake amount, Solution 5 (Compound 11 alone) ([1]; Example 2, 5×10^3 cells/well, 10^−5M Compound 11 solution diluted 1000 fold, about 24 hours, Solution 1 = 1.000)	Product of relative indices of single agent addition group ([1]; Example 2, Compound 11 alone × 1α,25-dihydroxyvitamin D3 alone)	activity at 0.02 µM ([2]; Rattus norvegicus, percentage to Solution 7 addition group, 2×10^−5M Test Compound solution diluted 1000 fold, about 48 hours, average ± standard deviation of four wells, read-out: Amount of formed formazan, Solution 8 (Test Compound alone)) [%]	Relative index of Solution 10 (a group of a drug combination) ([2]; Test Compound in combination with 1α,25-dihydroxyvitamin D3, amount of formed formazan, Solution 7 = 1.00)	Amount of formed formazan, Solution 10 (a group of a drug combination) ([2]; Test Compound in combination with 1α,25-dihydroxyvitamin D3, percentage to Solution 7 addition group, about 48 hours, average ± standard deviation of four wells)	Relative index of Solution 8 (Test Compound alone) [2, 3]
Cc1nc(-c2ccc(OCCCCCOc3ccc(/C(N)=N/O)cc3)cc2)c(C(C)C)s1 [Compound 1, N-hydroxy-4-{5-[4-(5-isopropyl-2-methyl-1,3-thiazol-4-yl)phenoxy]pentoxy}benzamidine]	1.011	not significantly different	1.233	–	–	–	–	–	–	–	–	–	–	–
C=C1/C(=C\C=C2/CCC[C@]3(C)[C@@H]([C@H](C)CCCC(C)(C)O)CC[C@@H]23)C[C@@H](O)C[C@@H]1O [1α,25-dihydroxyvitamin D3, reference compound]	–	not significantly different	–	1.220	1.195	not significantly different	1.05	105 ± 3.1	–	–	–	–	–	–
CCCN(CCC)c1nc(-c2ccc(OCCCCCOc3ccc(/C(N)=N/O)cc3)cc2)c(CC)s1 [Compound 11, N-hydroxy-4-{5-[4-(2-dipropylamino-5-ethyl-1,3-thiazol-4-yl)phenoxy]pentoxy}benzamidine]	–	–	–	–	–	not significantly different	–	–	1.023	1.223	103 ± 2.4	1.15	115 ± 4.4 # %	1.03

— patent publication US20110306580A1 (DONG WHA PHARMACEUTICAL CO ., LTD., priority 2009, published 2011)
